These are literature values, as cited in patent EP0527942B1, “COLONIC DRUG DELIVERY SYSTEM” (Perio Products Limited, priority 1990, dated 1991).

The series concerns morphine-dependent rats. To be noted: for time to diarrhea, withdrawal behavior and tail skin temperature response: oral administration.

On to `C=C1CC[C@@]2(O)[C@H]3Cc4ccc(O)c5c4[C@@]2(CCN3CC2CC2)[C@H]1O5` [nalmefene], for which the “time to diarrhea, withdrawal behavior and tail skin temperature response” value is not above 15 min. For the compound `C=CCN1CC[C@]23c4c5ccc(O)c4O[C@H]2C(=O)CC[C@@]3(O)[C@H]1C5` [naloxone], the “time to diarrhea, withdrawal behavior and tail skin temperature response” value is not above 15 min. As to nalmefene glucuronide, the time to diarrhea (direct colonic administration) was 5 to 8 min. Further, where the note is “subcutaneous administration”, the “activity when administered subcutaneously” value is “inactive”.
